Data on three compounds can be found in patent publication US20050227956A1, “Control of mold growth on wood” (priority 2004, published 2005).

One assay concerns Trichoderma virens. Put plainly: Six-well plate screening test. It counts as cell-based. To be noted: for Minimum Inhibitory Concentrations (MIC): 10 days of incubation at room temperature.
The next assay has as its system Stachybotrus charatrum. In words: Six-well plate screening test. It counts as cell-based.
The subject of a further assay is Penicillium funiculosum. Put plainly: Six-well plate screening test. To be noted: for Minimum Inhibitory Concentrations (MIC): 10 days of incubation at room temperature. In kind it is cell-based.
The next assay deals with Aureobasidium pullulans. Put plainly: Six-well plate screening test. The note with it: for Minimum Inhibitory Concentrations (MIC): 10 days of incubation at room temperature. It counts as cell-based.
A further assay concerns Mold from ACQ wood. Put plainly: Six-well plate screening test. In kind it is cell-based, cephalosporium. The note with it: 10 days of incubation at room temperature.
For another assay, the system named is Aspergillus niger. In words: Six-well plate screening test. It counts as cell-based. The note with it: for Minimum Inhibitory Concentrations (MIC): 10 days of incubation at room temperature.
For a further assay, the system named is Alternaria alternata. Put plainly: Six-well plate screening test. To be noted: for Minimum Inhibitory Concentrations (MIC): 10 days of incubation at room temperature. In kind it is cell-based.
The subject of assay [1] is Alternaria alternata, Aspergillus niger, Aureobasidium pullulans, Cladosporium cladosporioides, Cephalosporium sp. (DR 423). In words: Wood panel test method. The arrangement: species or system mixed spore suspension of mold. The note with it: compositions with the single moldicide at 40 mg/kg. As to the method: The wood panel specimens were approximately 5×3 inches (12.7×7.6 cm)×board thickness. There were seven replicates per treatment. The wood panels were conditioned at approximately 80° F. (27° C.) and 80% relative humidity for one week prior to mold inoculation. The wood panels were supported on a screen above a layer of water in a sealed plastic box for 8 weeks at approximately 80° F. (27° C.) and 100% relative humidity.
Mold and stain fungi used for inoculum were Alternaria alternata, Aspergillus niger, Aureobasidium pullulans, Cladosporium cladosporioides, and an additional mold isolated from ACQ-treated wood from Georgia Pacific (October 2002, tentatively identified as Cephalosporium sp. (DR 423).
Each inoculum was produced from fully colonized, 2% malt agar in 100 mm petri plates, by washing spores with 10 mL distilled water plus 10 mL rinse (20 mL inoculum were produced per plate). The panels were inoculated by spraying with mixed spore suspension of mold on the surface to be evaluated; approx. 2-3 mL of inoculum were applied per panel. The panel surfaces were lightly misted with distilled water once per week during the evaluation test to maintain optimum conditions for mold colonization in the chambers. Two evaluation ratings were made weekly for 8 weeks; using a scale of 0 (no coverage by mold) to 10 (total coverage by mold). […]

Assay [2] relates to Cladosporium cladosporioides. Put plainly: Six-well plate screening test. To be noted: for Minimum Inhibitory Concentrations (MIC): 10 days of incubation at room temperature. It counts as cell-based.
The mark [3] stands for this setting: single moldicide or ACQ-C alone, incubation period 14 days.
Where [4] appears, read: single moldicide, incubation period 21 days.

Turning to `CCCC1COC(Cn2cncn2)(c2ccc(Cl)cc2Cl)O1` (stereo not drawn) [Propiconazole, cis-trans-1-[2-(2,4-dichlorophenyl)-4-propyl-1,3-dioxolan-2-ylmethyl]-1H-1,2,4-triazole], the “Minimum Inhibitory Concentrations (MIC)” value in the assay with Trichoderma virens is given as 10 mg/kg; with Penicillium funiculosum, 100 mg/kg; in the assay with Aureobasidium pullulans, 1 mg/kg; in the assay on Mold from ACQ wood, 10 mg/kg; in the assay with Aspergillus niger, 10 mg/kg; with Alternaria alternata it was >100 mg/kg. Further, the “Minimum Inhibitory Concentrations (MIC)” value in [2] is 1 mg/kg. Besides, the MIC in the assay on Trichoderma virens (setting [3]) is listed as 6.2 mg/kg; with Trichoderma virens (setting [4]), 12.5 mg/kg; against Stachybotrus charatrum (setting [3]), 25 mg/kg; in the assay on Stachybotrus charatrum (setting [4]), 25 mg/kg; with Penicillium funiculosum (setting [3]) it was >100 mg/kg; in the assay with Penicillium funiculosum (setting [4]) it was >100 mg/kg. The MIC against Aureobasidium pullulans (setting [3]) came to 0.8 mg/kg; with Aureobasidium pullulans (setting [4]), 0.8 mg/kg; against Aspergillus niger (setting [3]) it was 25 mg/kg; against Aspergillus niger (setting [4]), 25 mg/kg; in the assay on Alternaria alternata (setting [3]), 100 mg/kg; in the assay with Alternaria alternata (setting [4]), 100 mg/kg. Moreover, the MIC in assay [2] (setting [3]) and in [2] (setting [4]) was 3.1 mg/kg each time. Besides, the “potential to control mold growth” value in assay [1] is recorded as “good potential to control mold growth”.
Consider `CC(C)(C)C(O)(CCc1ccc(Cl)cc1)Cn1cncn1` (racemic) [Tebuconazole, (RS)-1-p-chlorophenyl4,4-dimethyl-3-(1H-1,2,4-triazol-1-ylmethyl)pentan-3-ol], for which the “Minimum Inhibitory Concentrations (MIC)” value in the assay on Trichoderma virens is on record as >10 mg/kg; in the assay with Penicillium funiculosum, >10 mg/kg; in the assay with Aureobasidium pullulans, 10 mg/kg; in the assay on Mold from ACQ wood, >100 mg/kg; with Aspergillus niger it was 10 mg/kg; with Alternaria alternata it was 100 mg/kg. Besides, the “Minimum Inhibitory Concentrations (MIC)” value in [2] is 10 mg/kg. Besides, the MIC with Trichoderma virens (setting [3]) is given as >10 mg/kg; in the assay on Penicillium funiculosum (setting [3]), >10 mg/kg; against Aureobasidium pullulans (setting [3]) it was 10 mg/kg; with Aspergillus niger (setting [3]), 10 mg/kg; against Alternaria alternata (setting [3]), 100 mg/kg; in [2] (setting [3]), 10 mg/kg. For the same compound, the “potential to control mold growth” value in assay [1] was “good potential to control mold growth”.
Consider `Cc1cc(C2CC2)nc(Nc2ccccc2)n1` [Cyprodinil, 4-cyclopropyl-6-methyl-N-phenylpyrimidin-2-amine], for which the “Minimum Inhibitory Concentrations (MIC)” value in the assay on Trichoderma virens is given as >100 mg/kg; with Penicillium funiculosum it was 100 mg/kg; in the assay on Aureobasidium pullulans it was 100 mg/kg; in the assay on Mold from ACQ wood, >100 mg/kg; in the assay with Aspergillus niger it was 10 mg/kg; in the assay with Alternaria alternata it was 10 mg/kg. The “Minimum Inhibitory Concentrations (MIC)” value in [2] is 100 mg/kg. Besides, the MIC in the assay with Trichoderma virens (setting [3]) is reported as 100 mg/kg; against Trichoderma virens (setting [4]), >100 mg/kg; against Stachybotrus charatrum (setting [3]), 100 mg/kg; against Stachybotrus charatrum (setting [4]), 100 mg/kg; against Penicillium funiculosum (setting [3]) it was 100 mg/kg; against Penicillium funiculosum (setting [4]) it was 100 mg/kg. The MIC against Aureobasidium pullulans (setting [3]) is on record as 100 mg/kg; in the assay with Aureobasidium pullulans (setting [4]) it was >100 mg/kg; with Aspergillus niger (setting [3]) it was 100 mg/kg; in the assay with Aspergillus niger (setting [4]), >100 mg/kg; against Alternaria alternata (setting [3]), 12.5 mg/kg; with Alternaria alternata (setting [4]), 50 mg/kg. The MIC in assay [2] (setting [3]) is given as 100 mg/kg; in assay [2] (setting [4]), >100 mg/kg.
